Source: US12723039B2, “Small molecule inhibitors of SLC15A4 with anti-inflammatory activity” (THE SCRIPPS RESEARCH INSTITUTE, priority 2020, dated 2026)

Assays:
[1] = system: CpG (TLR9); experiment: In vivo model of inflammation: CpG co-injection, serum cytokines; conditions: mice co-injected with compound and CpG (TLR9), single dose, serum after 6 hr
[2] = target: T1, human SLC15A4 dileucine mutant (L14A, L15A, L318A, V319A) (Homo sapiens, UniProt Q8N697, L14A/L15A/L318A/V319A); experiment: SLC15A4 transport NFκB luciferase reporter assay in A549 cells; assay type: cell-based; conditions: for block of MDP transport in a dose-dependent fashion: FIG. 9; for suppression of MDP or Tri-DAP induced NFκB luciferase: A549 cells with membrane-trafficked SLC15A4 mutant
T1 construct: expressed in transfected cells
Source text: Development of SLC15A4-Transport Luciferase Reporter Assay. […] The precise substrate scope of endolysosomal SLC15A4 is not established. However, several studies have implicated SLC15A4 to be a transporter of the bacterial-derived peptidoglycans, such as MDP and Tri-DAP, which are ligands of the immune sensors NOD1 and NOD2^27-29, 48. Recently, it has been shown that disruption of the dileucine motifs (DE)-XXXL-(L/I) or DXXLL of SLC15A3^49 and SLC15A4^50 can result in successful targeting to the plasma membrane. Considering that NODs signal through the NFκB pathway, we sought to develop an NFκB reporter assay as a strategy to measure SLC15A4 transport in cells.
Briefly, both wildtype (WT) human SLC15A4 and a dileucine mutant (L14A, LISA, L318A, V319A) were cloned in frame with the mCherry using a (GGGGS)3 linker in the pLPC lentiviral backbone. Lentiviral vectors were packaged in psPAX2 and pMD2.G packing plasmids and used to generate stable cell lines expressing either SLC15A4 WT or membrane-trafficked SLC15A4 mutant A549 cells (FIG. 5A). Stable reporter cells were subsequently generated from these SLC15A4 cell lines using the Promega Dual-Luciferase Reporter system (pGLA4.32 [luc2P/NFκB-RE/Hygro]) containing five copies of an NF-κB response element. We confirmed the production of luciferase upon exposure to MDP or Tri-DAP NOD ligands ([…]), which is suppressed when exposed to either triptolide (an NF[…]B inhibitor, FIG. 5C) ML130 (NOD1 inhibitor, not shown) or GSK717 (NOD2 inhibitor, not shown).

[3] = system: endogenous NOD signaling in human macrophages; experiment: Endogenous NOD signaling in human macrophages; assay type: cell-based; conditions: FIG. 11
[4] = system: endogenous NOD signaling in mouse macrophages; experiment: Endogenous NOD signaling in mouse macrophages; assay type: cell-based; conditions: FIG. 11
[5] = target: T2, SLC25A20 (Homo sapiens, UniProt O43772); conditions: previously published work (ref. 46); cited from earlier work
T2 construct: endogenous in cells
T2 sequence (O43772 1-301): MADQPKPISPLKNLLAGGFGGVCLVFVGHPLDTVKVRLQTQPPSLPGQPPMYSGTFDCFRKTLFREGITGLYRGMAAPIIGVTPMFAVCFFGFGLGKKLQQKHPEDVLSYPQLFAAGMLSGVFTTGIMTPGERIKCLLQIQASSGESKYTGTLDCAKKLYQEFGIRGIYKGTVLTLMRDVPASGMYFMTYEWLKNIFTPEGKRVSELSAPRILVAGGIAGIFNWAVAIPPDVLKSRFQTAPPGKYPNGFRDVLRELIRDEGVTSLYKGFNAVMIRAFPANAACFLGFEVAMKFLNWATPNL

T1 sequence (Q8N697 whole entry L14A/L15A/L318A/V319A): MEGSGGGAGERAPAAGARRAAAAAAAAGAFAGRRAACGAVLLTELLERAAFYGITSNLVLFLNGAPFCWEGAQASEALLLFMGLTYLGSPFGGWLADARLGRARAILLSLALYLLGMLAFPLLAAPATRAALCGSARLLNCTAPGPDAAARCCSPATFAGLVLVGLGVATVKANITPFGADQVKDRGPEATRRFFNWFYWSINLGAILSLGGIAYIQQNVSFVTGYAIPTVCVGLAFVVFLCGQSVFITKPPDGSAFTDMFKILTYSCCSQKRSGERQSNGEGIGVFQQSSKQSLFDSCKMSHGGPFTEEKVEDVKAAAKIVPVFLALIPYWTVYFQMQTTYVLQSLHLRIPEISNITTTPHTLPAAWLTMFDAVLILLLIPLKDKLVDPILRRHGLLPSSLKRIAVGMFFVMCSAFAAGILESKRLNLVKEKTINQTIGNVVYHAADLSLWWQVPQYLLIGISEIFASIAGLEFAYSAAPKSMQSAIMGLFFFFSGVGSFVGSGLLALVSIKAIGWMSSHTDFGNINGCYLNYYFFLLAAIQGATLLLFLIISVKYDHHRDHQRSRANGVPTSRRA

Row | SMILES | block of MDP transport in a dose-dependent fashion [2] | in vivo efficacy: serum cytokines after CpG [1] | also measured
1 | CCCC(=O)n1c(NCc2c[nH]c3ccc(Br)cc23)nc2ccccc21 [AJ2-3, 1-(2-(((5-bromo-1H-indol-3-yl)methyl)amino)-1H-benzo[d]imidazol-1-yl)butan-1-one] |  | active | 
2 | CCCC(=O)N(Cc1ccc2[nH]ccc2c1)C1Cc2ccccc2C1 [AJ2-22, N-((1H-indol-5-yl)methyl)-N-(2,3-dihydro-1H-inden-2-yl)butyramide] | inactive controls | inactive control | 
3 | C#CCCC1(CCC(=O)Nc2ccc3oc(=O)ccc3c2)N=N1 [FFF 3] |  |  | engagement of SLC25A20 [5]: highly engages
4 | Cc1ccc(S(=O)(=O)n2c(N)nc3ccccc32)cc1 [ML130, reference compound] |  |  | suppression of MDP or Tri-DAP induced NFκB luciferase [2]: suppressed
5 | CC(C)[C@]12O[C@H]1[C@@H]1O[C@]13[C@]1(O[C@H]1C[C@H]1C4=C(CC[C@@]13C)C(=O)OC4)[C@@H]2O [triptolide, reference compound] |  |  | suppression of MDP or Tri-DAP induced NFκB luciferase [2]: suppressed

Continued, in another order:

Row | block of MDP transport in a dose-dependent fashion [2] | SMILES | in vivo efficacy: serum cytokines after CpG [1] | also measured
6 | active | Brc1ccc2[nH]cc(CNc3nc4ccccc4[nH]3)c2c1 [AJ2-3A, N-((5-bromo-1H-indol-3-yl)methyl)-1H-benzo[d]imidazol-2-amine] |  | 
7 | inactive controls | CCCC(=O)N(Cc1ccc2[nH]ccc2c1)C1Cc2ccccc2NC1=O (stereo not drawn) [AJ2-18, N-((1H-indol-5-yl)methyl)-N-(2-oxo-1,2,3,4-tetrahydroquinolin-3-yl)butyramide] |  | 
8 | active | CCn1c2ccccc2c2cc(CNc3nc4ccccc4n3C)ccc21 [AJ2-30, N-((9-ethyl-9H-carbazol-3-yl)methyl)-1-methyl-1H-benzo[d]imidazol-2-amine] | active | block of endogenous NOD signaling in human macrophages [3]: active; block of endogenous NOD signaling in mouse macrophages [4]: active
